The source of these data is US7115749B2, “Substituted 5-oxo pyrazoles and [1,2,4]triazoles as antiviral agents” (priority 2004, dated 2006).

Bounds are passed on as bounds.

The target in this test is HCV RNA-dependent RNA polymerase NS5B (Δ21) (Hepatitis C virus genotype 1b, UniProt P26663). Briefly: Assay for HCV RNA-dependent RNA polymerase activity (SPA, [3H]-GTP incorporation). It counts as biochemical. As for the experimental part: Assay for HCV RNA-dependent RNA Polymerase Activity
Chain of HCV RNA-dependent RNA polymerase NS5B (Δ21) (P26663 2420-2989, stated change not applied): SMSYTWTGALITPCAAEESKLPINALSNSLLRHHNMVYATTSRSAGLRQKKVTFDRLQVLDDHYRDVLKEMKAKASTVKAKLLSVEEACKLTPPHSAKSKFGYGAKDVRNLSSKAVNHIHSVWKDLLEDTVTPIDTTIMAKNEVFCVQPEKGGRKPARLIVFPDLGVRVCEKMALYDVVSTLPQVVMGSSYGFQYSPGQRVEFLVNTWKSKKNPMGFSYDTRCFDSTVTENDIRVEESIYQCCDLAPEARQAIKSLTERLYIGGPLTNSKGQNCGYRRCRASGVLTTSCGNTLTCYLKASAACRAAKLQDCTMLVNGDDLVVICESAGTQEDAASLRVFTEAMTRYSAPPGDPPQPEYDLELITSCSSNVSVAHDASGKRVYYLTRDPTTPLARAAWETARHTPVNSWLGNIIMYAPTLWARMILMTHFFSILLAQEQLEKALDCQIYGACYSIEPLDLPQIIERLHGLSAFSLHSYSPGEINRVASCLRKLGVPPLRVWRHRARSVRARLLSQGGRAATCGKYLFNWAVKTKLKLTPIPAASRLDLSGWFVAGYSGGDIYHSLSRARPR
Inhibitory activity of the present compounds against HCV RNA-dependent RNA polymerase was assayed according to the methods disclosed in U.S. Patent Application U.S.2004/038993, content of which is incorporated herein by reference; and those described in Ferrari, E.; Wright-Minogue, J.; Fang, J. W. S.; Baroudy, B. M.; Lau, J. Y. N.; Hong, Z. J. Virol. 1999, 73, 1649.
Briefly, 50 μl reactions containing 20 mM HEPES (pH 7.3), 7.5 mM DTT, 20 units/ml RNasIN, 0.5 ug/ml biotinylated oligoG12, 5 μg/ml polyC, 5 μM GTP, 20 μCi/ml [^3H]-GTP, 10 mM MgCl2, 60 mM NaCl, 100 μg/ml BSA, and 50 nM NS5B (Δ21) were incubated at room temperature for three hours in 96-well plates with or without test compounds. Assay was terminated by the addition of 50 μl 10 mg/ml streptavidin-coated SPA beads supplemented with 100 mM EDTA, and the incorporation of labeled GTP determined by a TopCount Scintillation Counter. IC50 values were calculated from single experiments using 11 serial 2-fold dilutions (0.05–50 μM), and data were considered reliable only when the IC50 value of a positive internal control was within standard deviation range.
The IC50 is the midpoint of a concentration-inhibition curve. The molecule `O=C(Cn1nc(C(=O)O)cc1OCc1ccccc1-c1ccc(C(=O)O)cc1)N[C@H]1CCCC[C@@H]1OCc1ccccc1` [Compound 56] came in with an IC50 of more than 12.5 µM.

Turning to `O=C(Cn1nc(C(=O)O)cc1OCc1ccc(F)c(F)c1)N[C@H]1CCCC[C@@H]1OCc1ccccc1` [Compound 25], half-maximal inhibition (IC50) was put at 4.3 µM.

`O=C(Cn1nc(C(=O)O)cc1OCc1ccccc1-c1ccccc1)N[C@H]1CCCC[C@@H]1OCc1ccccc1` [Compound 3] displayed an IC50 of 1 µM.

In turn, `O=C(Cn1nc(C(=O)O)cc1OCc1ccc(F)c(Cl)c1)N[C@H]1CCCC[C@@H]1OCc1ccccc1` [Compound 42] registered a 50% inhibitory concentration (IC50) of 13 µM.

In turn, `O=C(Cn1nc(C(=O)O)cc1OCc1ccc(Cl)c(Cl)c1)N[C@H]1CCCC[C@@H]1OCc1ccccc1` [Compound 36] displayed an IC50 of 0.86 µM.

The molecule `Cc1ccc(COc2cc(C(=O)O)nn2CC(=O)N[C@H]2CCCC[C@@H]2OCc2ccccc2)cc1F` [Compound 22] showed an IC50 of 3 µM.

As for `O=C(Cn1nc(C(=O)O)cc1OCc1cccc(F)c1F)N[C@H]1CCCC[C@@H]1OCc1ccccc1` [Compound 24], the IC50 is more than 12.5 µM.

Take `O=C(Cn1nc(C(=O)O)cc1OCc1ccc2ccccc2c1)N[C@H]1CCCC[C@@H]1OCc1ccccc1` [Compound 45]: 6.8 µM corresponded to half-maximal inhibition (IC50).

On to `O=C(Cn1nc(C(=O)O)cc1OCc1cccc(Oc2ccccc2F)c1)N[C@H]1CCCC[C@@H]1OCc1ccccc1` [Compound 39], for which the IC50 came to 2.2 µM.

In turn, `O=C(Cn1nc(C(=O)O)cc1OCc1ccccc1I)N[C@H]1CCCC[C@@H]1OCc1ccccc1` [Compound 61] displayed an IC50 of 6.5 µM.

Regarding `O=C(Cn1nc(C(=O)O)cc1OCc1cccc(F)c1C(F)(F)F)N[C@H]1CCCC[C@@H]1OCc1ccccc1` [Compound 44], the IC50 was found to be 4.5 µM.

`O=C(Cn1nc(C(=O)O)cc1OCc1ccc(F)cc1F)N[C@H]1CCCC[C@@H]1OCc1ccccc1` [Compound 29]: the IC50 is more than 12.5 µM.
